Assay results taken from US10689377B2 (Mirati Therapeutics, Inc., priority 2017, dated 2020).
pIC50: −log10 of the molar value.

Key:
KRas G12C [1] = target: KRas G12C (Homo sapiens, UniProt P01116, C118S/C51S/C80L/G12C); experiment: KRas G12C Modification Assay (LCMS detection of covalent adduct); type: binding; details: normalized percent of control; 5 μM concentration for 3 hours
How it was run: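 Intact protein analysed by LC/MS with deconvolution; unmodified protein signal normalized to no-compound control and reported as percent of control (POC).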

KRas G12C [2] = target: KRas G12C (Homo sapiens, UniProt P01116, G12C); experiment: Cellular inhibition of KRas G12C measured by Phospho-ERK in NCI-H358 cells; type: cell-based; details: pERK(Thr202/Tyr204) normalized with GAPDH, NCI-H358 cells, 3 hours; read-out: IC50
How it was run: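 NCI-H358 cells were allowed to attach for 8-12 hours, then exposed to compounds for 3 hours at 0.5% DMSO final. After formaldehyde fixation and methanol permeabilization, phospho-ERK (Thr202/Tyr204) was detected by in-cell immunofluorescence and normalized to GAPDH; IC50 came from a 4-parameter fit of percent-of-DMSO values.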

Compound	POC (KRas G12C [1])	pIC50 (KRas G12C [2])
CN1CCC[C@H]1COc1nc2c(c(N3CCN(C(=O)/C=C/CN4CCC(F)(F)C4)[C@@H](CC#N)C3)n1)CCN(c1cccc(Cl)c1C(F)(F)F)C2 [Example 471, 2-[(2S)-4-[7-[3-chloro-2-(trifluoromethyl)phenyl]-2-[[(2S)-1-methylpyrrolidin-2-yl]methoxy]-6,8-dihydro-5H-pyrido[3,4-d]pyrimidin-4-yl]-1-[(E)-4-(3,3-difluoropyrrolidin-1-yl)but-2-enoyl]piperazin-2-yl]acetonitrile]	C (“C”>50% POC)	< 6.00
[2H]C([2H])=C([2H])C(=O)N1CCN(c2nc(OC[C@@H]3CCCN3C)nc3c2CCN(c2cccc4ccccc24)C3)C[C@@H]1CC#N [Example 475, 2-[(2S)-4-[2-[[(2S)-1-methylpyrrolidin-2-yl]methoxy]-7-(1-naphthyl)-6,8-dihydro-5H-pyrido[3,4-d]pyrimidin-4-yl]-1-(2,3,3-trideuterioprop-2-enoyl)piperazin-2-yl]acetonitrile]	C (“C”>50% POC)	6.00 to 10.00
Cc1cccc2cccc(N3CCc4c(nc(OC[C@@H]5CCCN5C)nc4N4CCN(C(=O)/C=C/c5cccnc5)[C@@H](CC#N)C4)C3)c12 [Example 496, 2-((S)-4-(7-(8-methylnaphthalen-1-yl)-2-(((S)-1-methylpyrrolidin-2-yl)methoxy)-5,6,7,8-tetrahydropyrido[3,4-d]pyrimidin-4-yl)-1-((E)-3-(pyridin-3-yl)acryloyl)piperazin-2-yl)acetonitrile]	C (“C”>50% POC)	6.00 to 10.00
Cc1cccc2cccc(N3CCc4c(nc(OC[C@@H]5CC(F)(F)CN5C)nc4N4CCN(C(=O)/C=C/CF)[C@@H](CC#N)C4)C3)c12 [Example 529, 2-((S)-4-(2-(((S)-4,4-difluoro-1-methylpyrrolidin-2-yl)methoxy)-7-(8-methylnaphthalen-1-yl)-5,6,7,8-tetrahydropyrido[3,4-d]pyrimidin-4-yl)-1-((E)-4-fluorobut-2-enoyl)piperazin-2-yl)acetonitrile]	C (“C”>50% POC)	6.00 to 10.00
C=C(F)C(=O)N1CCN(c2nc(OC[C@@H]3CC(F)(F)CN3C)nc3c2CCN(c2cccc4cccc(C)c24)C3)C[C@@H]1CC#N [Example 530, 2-((S)-4-(2-(((S)-4,4-difluoro-1-methylpyrrolidin-2-yl)methoxy)-7-(8-methylnaphthalen-1-yl)-5,6,7,8-tetrahydropyrido[3,4-d]pyrimidin-4-yl)-1-(2-fluoroacryloyl)piperazin-2-yl)acetonitrile]	C (“C”>50% POC)	6.00 to 10.00
C=C(F)C(=O)N1CCN(c2nc(OC[C@@H]3CC(F)(F)CN3C)nc3c2CCN(c2cccc4cccc(Cl)c24)C3)C[C@@H]1CC#N [Example 543]	C (“C”>50% POC)	6.00 to 10.00
COC/C=C/C(=O)N1CCN(c2nc(OC[C@H]3CCCN3C)nc3c2CCN(c2cccc4cccc(C)c24)C3)C[C@@H]1CC#N [Example 554, 2-[(2S)-1-[(E)-4-Methoxybut-2-enoyl]-4-[7-(8-methyl-1-naphthyl)-2-[[(2R)-1-methylpyrrolidin-2-yl]methoxy]-6,8-dihydro-5H-pyrido[3,4-d]pyrimidin-4-yl]piperazin-2-yl] acetonitrile]	C (“C”>50% POC)	6.00 to 10.00
C=C(F)C(=O)N1CCN(c2nc(OC[C@@H]3CCCN3C)nc3c2CCN(c2c(C(F)(F)F)c(C)cc4[nH]ncc24)C3)C[C@@H]1CC#N [Example 555, 2-((S)-1-(2-Fluoroacryloyl)-4-(7-(6-methyl-5-(trifluoromethyl)-1H-indazol-4-yl)-2-(((S)-1-methylpyrrolidin-2-yl)methoxy)-5,6,7,8-tetrahydropyrido [3,4-d]pyrimidin-4-yl)piperazin-2-yl)acetonitrile]	C (“C”>50% POC)	6.00 to 10.00
C=C(F)C(=O)N1CCN(c2nc(OC[C@@H]3CCCN3C)nc3c2CCN(c2cc(O)cc4ccccc24)C3)C[C@@H]1CC#N [Example 556, 2-[(2S)-1-(2-Fluoroprop-2-enoyl)-4-[7-(3-hydroxy-1-naphthyl)-2-[[(2S)-1-methylpyrrolidin-2-yl]methoxy]-6,8-dihydro-5H-pyrido[3,4-d]pyrimidin-4-yl]piperazin-2-yl]acetonitrile]	C (“C”>50% POC)	6.00 to 10.00
C=C(F)C(=O)N1CCN(c2nc(OC[C@H]3C[C@@H](F)CN3C)nc3c2CCN(c2cccc4cccc(Cl)c24)C3)C[C@@H]1CC#N [Example 558, 2-((S)-4-(7-(8-Chloronaphthalen-1-yl)-2-(((2R,4R)-4-fluoro-1-methylpyrrolidin-2-yl)methoxy)-5,6,7,8-tetrahydropyrido[3,4-d]pyrimidin-4-yl)-1-(2-fluoroacryloyl)piperazin-2-yl)acetonitrile]	C (“C”>50% POC)	6.00 to 10.00
C=C(F)C(=O)N1CCN(c2nc(OCCN(C)C)nc3c2CCN(c2cccc4cccc(C)c24)C3)C[C@@H]1CC#N [Example 559, 2-[(2S)-4-[2-[2-(Dimethylamino)ethoxy]-7-(8-methyl-1-naphthyl)-6,8-dihydro-5H-pyrido[3,4-d]pyrimidin-4-yl]-1-(2-fluoroprop-2-enoyl)piperazin-2-yl]acetonitrile]	C (“C”>50% POC)	6.00 to 10.00
C=C(F)C(=O)N1CCN(c2nc(OC[C@@H]3C[C@@H](F)CN3C)nc3c2CCN(c2cccc4cccc(C)c24)C3)C[C@@H]1CC#N [Example 560, 2-[(2S)-4-[2-[[(2S,4R)-4-Fluoro-1-methyl-pyrrolidin-2-yl]methoxy]-7-(8-methyl-1-naphthyl)-6,8-dihydro-5H-pyrido[3,4-d]pyrimidin-4-yl]-1-(2-fluoroprop-2-enoyl)piperazin-2-yl]acetonitrile]	C (“C”>50% POC)	6.00 to 10.00
C=C(F)C(=O)N1CCN(c2nc(OC[C@@H]3C[C@@H](OC)CN3C)nc3c2CCN(c2cccc4cccc(C)c24)C3)C[C@@H]1CC#N [Example 561, 2-[(2S)-1-(2-Fluoroprop-2-enoyl)-4-[2-[[(2S,4R)-4-methoxy-1-methyl-pyrrolidin-2-yl]methoxy]-7-(8-methyl-1-naphthyl)-6,8-dihydro-5H-pyrido[3,4-d]pyrimidin-4-yl]piperazin-2-yl]acetonitrile]	C (“C”>50% POC)	6.00 to 10.00
C=C(F)C(=O)N1CCN(c2nc(OC[C@@H]3CCN(C)C3)nc3c2CCN(c2cccc4cccc(C)c24)C3)C[C@@H]1CC#N [Example 562, 2-[(2S)-1-(2-Fluoroprop-2-enoyl)-4-[7-(8-methyl-1-naphthyl)-2-[[(3R)-1-methylpyrrolidin-3-yl]methoxy]-6,8-dihydro-5H-pyrido[3,4-d]pyrimidin-4-yl]piperazin-2-yl]acetonitrile]	C (“C”>50% POC)	6.00 to 10.00
Cc1cccc2cccc(N3CCc4c(nc(OC[C@H]5CCCN5C)nc4N4CCN(C(=O)/C=C/CF)[C@@H](CC#N)C4)C3)c12 [Example 563, 2-[(2S)-1-[(E)-4-Fluorobut-2-enoyl]-4-[7-(8-methyl-1-naphthyl)-2-[[(2R)-1-methylpyrrolidin-2-yl]methoxy]-6,8-dihydro-5H-pyrido[3,4-d]pyrimidin-4-yl]piperazin-2-yl]acetonitrile]	C (“C”>50% POC)	6.00 to 10.00
C=C(F)C(=O)N1CCN(c2nc(OCCCN3C[C@@H]4C[C@H]3CO4)nc3c2CCN(c2cccc4cccc(Cl)c24)C3)C[C@@H]1CC#N [Example 564, 2-[(2S)-4-[7-(8-Chloro-1-naphthyl)-2-[3-[(1S,4S)-2-oxa-5-azabicyclo[2.2.1]heptan-5-yl]propoxy]-6,8-dihydro-5H-pyrido[3,4-d]pyrimidin-4-yl]-1-(2-fluoroprop-2-enoyl)piperazin-2-yl]acetonitrile]	C (“C”>50% POC)	6.00 to 10.00
Cc1cccc2cccc(N3CCc4c(nc(OCCCN5C[C@@H]6C[C@H]5CO6)nc4N4CCN(C(=O)/C=C/CF)[C@@H](CC#N)C4)C3)c12 [Example 565, 2-[(2S)-1-[(E)-4-Fluorobut-2-enoyl]-4-[7-(8-methyl-1-naphthyl)-2-[3-[(1S,4S)-2-oxa-5-azabicyclo[2.2.1]heptan-5-yl]propoxy]-6,8-dihydro-5H-pyrido[3,4-d]pyrimidin-4-yl]piperazin-2-yl]acetonitrile]	C (“C”>50% POC)	6.00 to 10.00
C=C(F)C(=O)N1CCN(c2nc(OCCCN3C[C@@H]4C[C@H]3CO4)nc3c2CCN(c2cccc4cccc(C)c24)C3)C[C@@H]1CC#N [Example 566, 2-[(2S)-1-(2-Fluoroprop-2-enoyl)-4-[7-(8-methyl-1-naphthyl)-2-[3-[(1S,4S)-2-oxa-5-azabicyclo[2.2.1]heptan-5-yl]propoxy]-6,8-dihydro-5H-pyrido[3,4-d]pyrimidin-4-yl]piperazin-2-yl]acetonitrile]	C (“C”>50% POC)	6.00 to 10.00
C=C(F)C(=O)N1CCN(c2nc(OC[C@@H]3CCCN3C)nc3c2CCN(c2cccc4cccc(CO)c24)C3)C[C@@H]1CC#N [Example 567, 2-[(2S)-1-(2-Fluoroprop-2-enoyl)-4-[7-[8-(hydroxymethyl)-1-naphthyl]-2-[[(2S)-1-methylpyrrolidin-2-yl]methoxy]-6,8-dihydro-5H-pyrido[3,4-d]pyrimidin-4-yl]piperazin-2-yl]acetonitrile]	C (“C”>50% POC)	< 6.00
C=C(F)C(=O)N1CCN(c2nc(OC[C@@H]3CCCN3)nc3c2CCN(c2cccc4cccc(C)c24)C3)C[C@@H]1CC#N [Example 568, 2-[(2S)-1-(2-Fluoroprop-2-enoyl)-4-[7-(8-methyl-1-naphthyl)-2-[[(2S)-pyrrolidin-2-yl]methoxy]-6,8-dihydro-5H-pyrido[3,4-d]pyrimidin-4-yl]piperazin-2-yl]acetonitrile]	C (“C”>50% POC)	6.00 to 10.00
